The results in this text go back to ChEMBL document CHEMBL4613284, “A Class of Potent Inhibitors of the HIV-1 Nucleocapsid Protein Based on Aminopyrrolic Scaffolds” (ACS Med Chem Lett, 2020).

Series [1] has as its target cTAR DNA. Kind of series: Binding affinity to HIV1 nucleocapsid protein (11 to 55 residues)-targeted Rh6G-5'-cTAR DNA-3'-Dabcyl assessed as inhibition of NC-induced viral Rh6G-5'-cTAR DNA-3'-Dabcyl destabilization by measuring fluorescence intensity up to 60 mins by fluorescence assay. The series is classed as nucleic-acid assay, Human immunodeficiency virus 1.
In series [2] the test system is ssDNA. Nature of the series: Competitive binding affinity to HIV1 S3G5 oligonucleotide assessed as apparent equilibrium dissociation constant of NC(11 to 55 residues) to S3G5 oligonucleotide at 20 uM and 20 degreeC by isothermal titration calorimetry (reference value: 0.15 +/- 0.1 microM). Type of series: nucleic-acid assay. As to conditions: Human immunodeficiency virus 1. (In general: In ITC the heat of successive injections is recorded.)

The target in series [3] is cTAR DNA. Kind of series: Binding affinity to HIV1 fluorescein-labeled-5'-cTAR DNA at cTAR to compound complex stoichiometry ratio of 1:3 using 30 mM NaCl by fluorescence anisotropy assay. The series is classed as nucleic-acid assay, Human immunodeficiency virus 1.
Series [4] has as its system cTAR DNA. Nature of the series: Inhibition of annealing of HIV1 Rh6G5'-cTAR DNA-3'-Dabcyl/unlabeled dTAR at 4 uM after 25 hrs by spectrofluorimetry analysis. The series is classed as nucleic-acid assay. The note with it: Human immunodeficiency virus 1.
Series [5] concerns ssDNA. Nature of the series: Competitive binding affinity to HIV1 S3G5 oligonucleotide assessed as apparent equilibrium dissociation constant of NC(11 to 55 residues) to S3G5 oligonucleotide at 5 uM and 20 degreeC by isothermal titration calorimetry (reference value: 0.15 +/ 0.1 microM). The series is classed as nucleic-acid assay. As to conditions: Human immunodeficiency virus 1.

For series [6], the system named is Human immunodeficiency virus 1. Nature of the series: Binding affinity to HIV1 nucleocapsid protein (11 to 55 residues) assessed as change in fluorescence intensity of Trp37 residue up to 10 uM by fluorescence anisotropy assay. (Fluorescence polarisation rises when a labelled molecule tumbles more slowly, as on binding a larger partner.)
Series [7] deals with cTAR DNA. Nature of the series: Binding affinity to HIV1 nucleocapsid protein (11 to 55 residues)-targeted Rh6G-5'-cTAR DNA-3'-Dabcyl/dTAR assessed as inhibition of NC-promoted annealing of Rh6G-5'-cTAR DNA-3'-Dabcyl/unlabeled dTAR at 4 uM after 25 hrs by spectrofluorimetry analysis relative to control. As to conditions: Human immunodeficiency virus 1. Type of series: nucleic-acid assay.

Series [8] concerns PBS RNA. Nature of the series: Inhibition of annealing of HIV1 Rh6G-5'-(+)-PBS-3'-Dabcyl/(-)-PBS at 4 uM by spectrofluorimetry analysis relative to control. The series is classed as nucleic-acid assay. As to conditions: Human immunodeficiency virus 1.
Series [9] deals with PBS RNA. Nature of the series: Binding affinity to HIV1 propidium iodide-labeled double stranded (-)/(+)-PBS sequence by fluorescence anisotropy assay. Type of series: nucleic-acid assay. The note with it: Human immunodeficiency virus 1.
The test system of series [10] is Human immunodeficiency virus 1. Kind of series: Binding affinity to HIV1 nucleocapsid protein (11 to 55 residues) assessed as increase in fluorescence intensity of Trp37 residue at 100 uM by fluorescence anisotropy assay.
The nature of series [11]: Cytotoxicity against human U373 cells expressing CD4-CCR5 assessed as reduction in cell viability incubated for 48 hrs by luciferase assay. Type of series: cell-based, U-373MG ATCC. As to conditions: U373 MG.
For series [12], the system named is cTAR DNA. Nature of the series: Binding affinity to HIV1 propidium iodide-labeled-5'-cTAR DNA at cTAR to compound complex stoichiometry ratio of 1:3 using 30 mM NaCl by fluorescence anisotropy assay. The series is classed as nucleic-acid assay. As to conditions: Human immunodeficiency virus 1.
The subject of series [13] is ssDNA. Kind of series: Competitive binding affinity to HIV1 S3G5 oligonucleotide at 20 degreeC by isothermal titration calorimetry. Type of series: nucleic-acid assay. The note with it: Human immunodeficiency virus 1.
A short description of series [14]: Solubility of compound in water. The series is classed as physicochemical. The note with it: buffer.
For series [15], the system named is Human immunodeficiency virus 1. Nature of the series: Binding affinity to HIV1 nucleocapsid protein (11 to 55 residues) assessed as change in fluorescence intensity of Trp37 residue up to 100 uM by fluorescence based analysis.
In series [16] the target is ssDNA. Kind of series: Competitive binding affinity to HIV1 S3G5 oligonucleotide assessed as equilibrium dissociation constant by isothermal titration calorimetry. Type of series: nucleic-acid assay, Human immunodeficiency virus 1.
Series [17] concerns ssDNA. Nature of the series: Binding affinity to HIV1 single stranded fluorescein-labeled-5'-S3G5 oligonucleotide at 5'-S3G5 oligonucleotide to compound stoichiometry ratio of 1:3 by fluorescence anisotropy assay. The note with it: Human immunodeficiency virus 1. The series is classed as nucleic-acid assay.
Series [18] deals with cTAR DNA. Nature of the series: Binding affinity to HIV1 nucleocapsid protein (11 to 55 residues)-targeted Rh6G-5'-cTAR DNA-3'-Dabcyl/dTAR assessed as inhibition of NC-promoted annealing of Rh6G-5'-cTAR DNA-3'-Dabcyl/unlabeled dTAR at 0.4 uM by spectrofluorimetry analysis. Type of series: nucleic-acid assay. As to conditions: Human immunodeficiency virus 1.
The nature of series [19]: Therapeutic index, ratio of CC50 for human U373 cells expressing CD4-CCR5 to IC50 for HIV1 pNL4.3deltaenvLuc-ADA 8 pseudotyped virus infected in human U373-CD4-CCR5 cells. Type of series: toxicity, cell-based. The note with it: read-out: Ratio CC50/IC50.
Series [20] has as its system Human immunodeficiency virus 1. Kind of series: Antiviral activity against HIV1 pNL4.3deltaenvLuc-ADA 8 pseudotyped virus infected in human U373-CD4-CCR5 cells assessed as reduction in viral infection measured after 48 hrs by luciferase assay. The series is classed as functional, organism-based. As to conditions: Human immunodeficiency virus 1, 48 h.
The test system of series [21] is PBS RNA. Kind of series: Binding affinity to HIV1 nucleocapsid protein (11 to 55 residues)-targeted Rh6G-5'-(+)-PBS-3'-Dabcyl/(-)-PBS assessed as inhibition of NC-promoted annealing of +/- PBS sequence at 4 uM by spectrofluorimetry analysis relative to control. The series is classed as nucleic-acid assay. The note with it: Human immunodeficiency virus 1.
Series [22] concerns the target cTAR DNA. Kind of series: Binding affinity to HIV1 fluorescein-labeled-5'-cTAR DNA at cTAR to compound complex stoichiometry ratio of 1:3 using 80 mM NaCl by fluorescence anisotropy assay. Type of series: nucleic-acid assay, Human immunodeficiency virus 1.
Series [23] deals with cTAR DNA. Nature of the series: Binding affinity to HIV1 fluorescein-labeled-5'-cTAR DNA at cTAR to compound complex stoichiometry ratio of 1:3 using 150 mM NaCl by fluorescence anisotropy assay. Type of series: nucleic-acid assay. The note with it: Human immunodeficiency virus 1.
Series [24] has as its system Human immunodeficiency virus 1. Kind of series: Antiviral activity against HIV1 3B infected in human MT4 cells assessed as protection against virus-induced cytopathic effect incubated for 5 days by MTT assay. The note with it: Human immunodeficiency virus 1, 3B, MT4, 120 h. The series is classed as functional, organism-based. Background: Cytopathic effects are the visible damage that an infection or toxin causes in cultured cells.

The nature of series [25]: Cytotoxicity against human MT4 cells assessed as reduction in cell viability incubated for 5 days by MTT assay. The series is classed as cell-based.

The source made the active and inactive calls. The calls are words filed in the database; no cut-off is given here.

For the compound `c1c[nH]c(CNCc2ccc(CNCc3ccc[nH]3)c3c(CNCc4ccc[nH]4)ccc(CNCc4ccc[nH]4)c23)c1`, on cTAR DNA [1], the IC50 is 10 µM.
On to `c1c[nH]c(CNCc2cc(CNCc3ccc[nH]3)c(CNCc3ccc[nH]3)c(CNCc3ccc[nH]3)c2)c1`, for which, at cTAR DNA [1], the IC50 came out at 130 µM.
Still for that read-out and setting: next, `CCc1c(CN[C@@H]2CCCC[C@H]2NCc2ccc[nH]2)c(CC)c(CN[C@@H]2CCCC[C@H]2NCc2ccc[nH]2)c(CC)c1CN[C@@H]1CCCC[C@H]1NCc1ccc[nH]1`: 96 µM.
The same measure, in the same setting: next, `CCc1c(CNCc2ccc[nH]2)c(CC)c2c(CC)c1CNCc1ccc([nH]1)CNCc1c(CC)c(CNCc3ccc[nH]3)c(CC)c(c1CC)CNCc1ccc([nH]1)CNC2`: 17 µM.
In the case of `CCc1c(CN[C@@H]2CCCC[C@H]2N)c(CC)c2c(CC)c1CN[C@@H]1CCCC[C@H]1NCc1ccc([nH]1)CN[C@@H]1CCCC[C@H]1NC2`, at cTAR DNA [1], the IC50 turned out to be 60 µM.
In the case of `CCc1c(CN)c(CC)c2c(CC)c1CNCc1ccc([nH]1)CNCc1c(CC)c(CNCc3ccc[nH]3)c(CC)c(c1CC)CNCc1ccc([nH]1)CNC2`, the Kapp in the series on ssDNA [2] is 12 µM; in the series with ssDNA [5] it was 1.5 µM. The Kd on cTAR DNA [3] came out at 0.23 µM; on ssDNA [16], 0.26 µM; on cTAR DNA [22] it was 2 µM. In the series on cTAR DNA [4], the inhibition result is “Active”. In addition, the result (in series [6]; in the series on PBS RNA [9]; in [15]; with cTAR DNA [23]) was inactive. The inhibition in the series with cTAR DNA [7], in the series on PBS RNA [8] and with PBS RNA [21] was 100% throughout. Further, the outcome (in series [10]; with cTAR DNA [12]; with cTAR DNA [18]) was Active. Further, the IC50 was 15 µM in series [11], 4.4 µM at cTAR DNA [1], 1.8 µM in [20] and 13.5 µM in [24]. Besides, the Activity entry with ssDNA [13] is “Dose-dependent effect”. For the same compound, the solubility result in series [14] is reported as “Soluble”. Besides, the K with ssDNA [17] amounted to 0.6 µM. In addition, the selectivity ratio in [19] stood at 8. The CC50 at 120 h in [25] came out at 24 µM.
Regarding `c1c[nH]c(CNCc2c(CNCc3ccc[nH]3)c(CNCc3ccc[nH]3)c(CNCc3ccc[nH]3)c(CNCc3ccc[nH]3)c2CNCc2ccc[nH]2)c1`, the IC50 at cTAR DNA [1] came out at 52 µM.
In the case of `CCc1c(CN[C@H]2CCCC[C@@H]2NCc2ccc[nH]2)c(CC)c(CN[C@H]2CCCC[C@@H]2NCc2ccc[nH]2)c(CC)c1CN[C@H]1CCCC[C@@H]1NCc1ccc[nH]1`, the 50% inhibitory concentration (IC50) on cTAR DNA [1] worked out at 93 µM.
Still for that read-out and setting: the same measure for `CCc1c(CN)c(CC)c2c(CC)c1CNCc1ccc([nH]1)CNCc1c(CC)c(CN)c(CC)c(c1CC)CNCc1ccc([nH]1)CNC2`: 4.9 µM; for `CCc1c(CNCCNCc2ccc[nH]2)c(CC)c(CNCCNCc2ccc[nH]2)c(CC)c1CNCCNCc1ccc[nH]1`: 58 µM; for `CCc1c2c(CC)c(CN[C@H]3CCCC[C@@H]3N)c(CC)c1CN[C@H]1CCCC[C@@H]1NCc1ccc([nH]1)CN[C@H]1CCCC[C@@H]1NC2`: 63 µM.
Regarding `CCc1c(CNCc2ccc[nH]2)c(CC)c(CNCc2ccc[nH]2)c(CC)c1CNCc1ccc[nH]1`, at cTAR DNA [1], the IC50 turned out to be 150 µM.

One may read the IC50 as the concentration that gives 50% inhibition. As usually defined, the Kd is the free concentration of one partner at which half of the binding sites on the other are occupied at equilibrium, for simple one-to-one binding. Usually inhibition stands for the change of the read-out against control, counted positive when it falls. Broadly, the CC50 is the concentration that lowers cell viability or growth by half.
